Key:
[1] = system: adult subjects with TRD; conditions: double-blind phase
Procedure: The CADSS is an instrument for the measurement of present-state dissociative symptoms, and was administered to assess treatment-emergent dissociative symptoms. The CADSS consists of 23 subjective items, divided into 3 components: Depersonalization (Items 3 to 7, 20, and 23), derealization (Items 1, 2, 8 to 13, 16 to 19, and 21) and amnesia (Items 14, 15, and 22). Participant's responses were coded on a 5-point scale (0=not at all through to 4=extremely).
(§1) The Clinician Administered Dissociative States Scale (CADSS) was measured prior to the start of each dose, at 40 minutes, and 1.5 hours postdose.

[2] = system: adult subjects with TRD; conditions: US patients
From the text: Adverse events were reported by the subject (or, when appropriate, by a caregiver, surrogate, or the subject's legally acceptable representative) for the duration of the study. Adverse events were followed by the investigator. TEAEs of special interest were examined separately.
The verbatim terms used in the eCRF by investigators to identify adverse events were coded using the MedDRA. All reported adverse events with onset during the double-blind induction phase (i.e., TEAEs, and adverse events that have worsened since baseline) were included in the analysis. For each adverse event, the percentage of subjects who experience at least 1 occurrence of the given event was summarized by treatment group. Adverse events occurring during the follow-up phase were summarized separately.
TEAEs of special interest were examined separately. AEs of special interest were listed in the SAP. Subjects who died, who discontinued treatment due to an adverse event, or who experienced a severe or a serious adverse event were summarized separately.
An adverse event is any untoward medical occurrence in a clinical study subject administered a medicinal (investigational or non-investigational) product. […]

[3] = system: patients with treatment-resistant depression (TRD); assay: CADSS (Example 7); parameters: species or system human; conditions: in vivo
Procedure: Adverse events were monitored throughout the study. Other safety assessments (i.e., laboratory tests, vital signs, physical examination) were performed at pre-specified time points. Vital signs, the Clinician Administered Dissociative States Scale (CADSS; Bremner, “Measurement of dissociative states with the clinician-administered dissociative states scale (CADSS)”, J. Traumatic Stress, 1998, 11(1):125-136), and the 4-item positive symptom subscale from the Brief Psychiatric Rating Scale (BPRS; Overall, “The Brief Psychiatric Rating Scale. Psychological Reports”, 1962, 10:799-812) were assessed pre-dose, at 40 minutes, and 2 hours post-dose.

[4] = system: adult subjects with TRD; conditions: double-blind phase; remark: listed apart in the source
Procedure: The MOAA/S was used to measure treatment-emergent sedation, with correlation to levels of sedation defined by the American Society of Anesthesiologists (ASA) continuum. The MOAA/S scores range from 0=no response to painful stimulus (corresponds to ASA continuum for general anesthesia) to 5=readily responds to name spoken in normal tone (awake; corresponds to ASA continuum for minimal sedation).
On each intranasal dosing day, the MOAA/S was performed every 15 minutes from pre-dose to t=+1.5 hours post-dose. If the score was ≤3 at any time during the 1.5 hours post-dose interval, the MOAA/S was performed every 5 minutes until a score of 4 is reached (at which point a frequency of every 15 minutes can be resumed until t=+1.5 hours post dose). […] For subjects with a score of 4, the assessment was repeated every 15 minutes. […]
The Modified Observer's Assessment of Alertness/Sedation (MOAA/S) was used to measure treatment-emergent sedation with correlation to levels of sedation defined by the American Society of Anesthesiologists (ASA) continuum. The MOAA/S scores ranged from 0 (No response to painful stimulus; corresponds to ASA continuum for general anesthesia) to 5 (Readily responds to name spoken in normal tone [awake]; corresponding to ASA continuum for minimal sedation).

[5] = system: subjects with TRD; conditions: human, in vivo, other: intranasal
Procedure: as §1

[6] = system: adult subjects with TRD
Procedure: Blood pressure and pulse/heart rate measurements were assessed supine with a completely automated device. Manual techniques were used only if an automated device is not available. Blood pressure and pulse/heart rate measurements were preceded by at least 5 minutes of rest in a quiet setting without distractions (e.g., television, cell phones).
Descriptive statistics of temperature, pulse/heart rate, respiratory rate, pulse oximetry, and blood pressure (systolic and diastolic) (supine) values and changes from baseline were summarized at each scheduled time point. The percentage of subjects with values beyond clinically important limits were summarized.

[7] = 14-day study, 54 mg/day intranasal
Procedure: This study includes a single dose and 14-day repeated dose neurotoxicity studies with intranasally administered esketamine in female rats 12 to 14 weeks of age. These studies were conducted to investigate whether single or repeated intranasal administrations of esketamine induced neurodegenerative changes in the rat brain. The study results were used to estimate an esketamine exposure-based safety margin compared with the maximum dose of esketamine administered intranasally to depressed adult patients in clinical trials.
Each group of main study animals consisted of 12 female rats. Four satellite animals were added to the esketamine HCl-dosed groups of main study animals for TK purposes. The plasma exposure to esketamine was measured in these animals on the first and the last day of dosing at various time points up to and including 24 hours after the first instillation.

[8] = system: patients with treatment-resistant depression (TRD); assay: GAD-7 (Example 7); type: in vivo, human
Procedure: Overall illness severity was assessed on the Clinical Global Impression of Severity (CGI-S) scale (Guy, “ECDEU Assessment Manual for Psychopharmacology—Revised (DHEW Publ No ADM 76-338)”, Rockville, Md.: U.S. Department of Health, Education, and Welfare, Public Health Service, Alcohol, Drug Abuse, and Mental Health Administration, NIMH Psychopharmacology Research Branch, Division of Extramural Research Programs; 1976, pp 218-222). Participants assessed their severity of anxiety on the Generalized Anxiety Disorder 7-item (GADS-7) Scale (See, Tables 157 and 158). See, Spitzer, “A brief measure for assessing generalized anxiety disorder—the GAD-7”, Arch. Intern. Med., 2006, 166(10):1092-1097.

CN[C@]1(c2ccccc2Cl)CCCCC1=O [esketamine, (S)-2-(2-chlorophenyl)-2-(methylamino)cyclohexanone]
dissociative and perceptual change symptoms (CADSS) resolved by [1]: ≤ 1.5 hours postdose
patients who withdrew from nasal spray drug [2]: 3 n
perceptual changes/dissociative symptoms (CADSS) peaked around [3]: 30 to 40 min
perceptual changes/dissociative symptoms (CADSS) resolved by [3]: ≤ 2 h
sedation (MOAA/S) resolved by [4]: ≤ 1.5 hours postdose
dissociative/perceptual change symptoms (CADSS) resolved by [5]: ≤ 1.5 hours post dose
maximum mean increase in diastolic BP ([6]; across all dosing days): 8.1
time blood pressure returned to normal range ([6]; double-blind phase): 90 min
time of peak of transient blood pressure increase post dose ([6]; double-blind phase): approximately 40 minutes
AUC-based safety margin compared with the maximum 84 mg clinical dose [7]: ~11 fold
Cmax-based safety margin compared with the maximum 84 mg clinical dose [7]: approximately 17 fold
GAD-7 change, LS mean difference from placebo (SE) ([8]; Period 1, 28 mg): −0.21 (1.461)
GAD-7 change, LS mean difference from placebo (SE) ([8]; Period 1, 56 mg): −1.40 (1.478)
GAD-7 change, LS mean difference from placebo (SE) ([8]; Period 2, 56 mg): 0.60 (1.033)

Reference: patent publication US11883526B2 (priority 2019, dated 2024)
